For assay [1], the system named is diabetic fibroblasts. The assay is described as follows: Inflammatory cytokine release by fibroblasts, ELISA. The note with it: lipoic acid 500 μM, Nrf2-dependent. The assay is classed as cell-based, rat. The source says:
To determine the effect of α-lipoic acid on isolated cells from normal and diabetic rats, primary rat fibroblasts were derived from dorsal skin biopsies performed on four diabetic Coto Kakizaki rats (DFs) and four age-matched (12-14 months) and sex-matched (female) Wistar control rats (CFs). After sterilization in povidine solution, the rat skin was washed in sterile water and rinsed in 70% ethanol in phosphate-buffered saline (PBS). The epidermis and dermis were separated following overnight incubation in 0.25% Trypsin/EDTA at 4° C. Samples were washed, diced and digested for thirty minutes at 37° C. in collagenase type I (250 U/ml) dissolved in Dulbecco's modified Eagle medium (DMEM; Invitrogen) containing penicillin (100 U/ml), 2 mM L-glutamine and 26 mM HEPES. After collagenase treatment, the cells were dislodged, centrifuged and resuspended in medium supplemented with 10% fetal bovine serum. […]
With regard to ELISA assays to determine cytokine expression levels, control and diabetic fibroblasts were seeded on a 6-well plate at 2.5×10^5 cells/well. […] After incubation for 16 hr, supernatants were collected and analyzed for key inflammatory cytokines, including TNF-α, IL-1β, fractalkine and monocyte chemoattractant protein-1 (MCP-1) using commercially available ELISA kits specific for rats and according to the protocols provided by the manufacturers (R&D and Ray Biotech). […]
(In general: In an ELISA, binding on a coated surface is turned into a signal by an enzyme label.)

Assay [2] deals with aortic tissue. The assay is described as follows: Aortic superoxide production, lucigenin-enhanced chemiluminescence. Format: in vivo, rat. The conditions noted are these: GK rats, LA 50 mg/kg i.p. daily for four weeks. The protocol:
In the study, with regard to measurement of vascular superoxide anion formation, O2^− concentration in aortic tissue was determined using a lucigenin-enhanced chemiluminescence method, and the resulting data were further confirmed by a cytochrome c-based technique. Segments of the thoracic aorta were placed into 2 ml Krebs-Henseleit buffer (KHB, pH 7.4), and prewarmed to 37° C. for one hour. Immediately before measurement, rings were transferred to scintillation vials containing KHB with 5 μmol/L lucigenin and the O2^− generated chemiluminescence was recorded for five minutes with a scintillation counter. The amount of O2^− produced was quantified using a standard curve of O2^− generation by xanthine/xanthine oxidase and the data are expressed as nmol per min, per mg, of wet weight. In some experiments, vessels were denuded of endothelium by gentle rubbing of the luminal surface, whereas in others, N^ω-nitro-L-arginine methyl ester (L-NAME) 0.1 mM, diphenylene iodonium 0.1 mM, or apocynin 3 mM were added 60 min before determining O2^− generation.

For assay [3], the system named is gp 91^phox. The assay is described as follows: Aortic mRNA expression by real-time PCR, gp 91phox. The assay is classed as in vivo, rat. The note with it: aorta of LA-treated GK rats. How it is done:
(§1) Further, with regard to quantitative real-time polymerase chain reactions (PCR) in the study, total RNA from the arterial samples was isolated using TRIZOL® reagent, and RNA integrity was verified by agarose gel electrophoresis and quantified by spectrophotometry. Reverse transcription reaction of total RNA (5 μg) was performed using a superscript 111 first-strand synthesis system. Quantitative real-time PCR was performed using fast SYBR Green QPCR. […]
(§2) The housekeeping gene beta-actin was used for internal normalization. Fidelity of the PCR reaction was determined by melting temperature analysis. PCR efficiency for each primer pair was determined by quantitating amplification with increasing concentration of template cDNA. […] RNA expression of target genes was calculated based on the real-time PCR efficiency E and the threshold crossing point (CP) and is expressed relative to the reference gene beta-actin.
(In general: Real-time PCR tracks product formation cycle by cycle.)

Assay [4] has as its system aortic tissues. The assay is described as follows: Apoptotic cell death ELISA, cytoplasmic histone-associated DNA fragments in aorta. The assay is classed as in vivo, rat. How it is done:
With regard to the assessment of apoptotic cell death using enzyme-linked immuno-absorbent-based assay, aortic tissues derived from control, GK and LA-treated GK rats were lysed and cytoplasmic histone-associated DNA fragments, indicating apoptotic cell death were determined by the Cell Death ELISA® plus kit. Data are reported as arbitrary optical density units normalized to protein concentration.

In assay [5] the test system is NAD(P)H oxidase. The assay is described as follows: NAD(P)H oxidase activity in aortic homogenates (lucigenin photoemission). The assay is classed as biochemical, rat. The note with it: GK rats after LA therapy.
Description: Determination of NAD(P)H oxidase activity in the aorta was determined based on superoxide induced lucigenin photoemission. Enzyme assays were carried out in a final volume of 1 ml. containing (in mM) 50 phosphate buffer; pH 7.0, 1 EGTA, 150 sucrose, 0.5 lucigenin, 0.1 NAD(P)H and tissue homogenate. Enzyme reactions were initiated with the addition of lucigenin. Photoemission, expressed in terms of relative light units (RLU), was measured every 5 min. using a luminometer. All assays were carried out in the dark at room temperature.
Assay [6] deals with nox-1. The assay is described as follows: Aortic mRNA expression by real-time PCR, nox-1. The conditions noted are these: aorta of LA-treated GK rats. The assay is classed as in vivo, rat. The protocol: as §1, §2
Assay [7] relates to rat aortic rings. The experiment in a line: Acetylcholine-induced endothelium dependent relaxation of aortic rings in organ chamber. The note with it: GK diabetic rats. Format: in vivo. The protocol:
In the experiments, with regard to the determination of endothelium dependent relaxation (EDR) in the aorta, EDR in response to various concentrations of acetylcholine (Ach) (10^−9 to 10^−6 mol/l) was assessed in norepinephrine (10^−7 mol/l) preconstructed rat aortic rings using an organ chamber bath. The effects of the NAD(P)H oxidase inhibitor apocynin (3×10^−4 mol/l) and the O2^− scavenger Tiron (10 mmol/l) on Ach-induced responses of diabetic arteries were also considered.

For `O=C(O)CCCCC1CCSS1` (stereo not drawn) [LA, alpha-lipoic acid], in assay [1], the “release of inflammatory cytokines by diabetic fibroblasts” value is on record as “ameliorated”. Further, the “diabetes-mediated increase in aortic superoxide production” value in assay [2] is on record as “suppression”. In assay [3], the “rate of gene expression of pg 91^phox subunit” value is “tended to reduce”. Besides, the “reduction of DNA fragmentation rate in diabetic arteries” value in assay [4] (chronic LA treatment, GK rats) was found to be 42%. In addition, the “LA-mediated antiapoptotic effect after discontinuation” value in assay [4] (two weeks after discontinuation of therapy) is “markedly reduced”. Further, the “NAD(P)H oxidase driven O2− generation in homogenates of diabetic aorta” value in assay [5] was “significantly attenuated”. For the same compound, in assay [6], the “rate of gene expression of nox-1 subunit” value is “tended to reduce”. In addition, in assay [7] (LA 50 mg/kg i.p. daily for four weeks), the “decline in acetylcholine (Ach)-induced relaxation of rat aorta” value is given as “ameliorated”. Also, the “beneficial effect on Ach-induced relaxation after discontinuation” value in assay [7] (two weeks after discontinuation of LA) is “not evident”.

The values above are taken from US8735443B2, “Method of treating diabetes-related vascular complications” (Kuwait University, priority 2008, dated 2014).
